Measurements published in patent US5955421A, “Peptides containing D-2-alkyl-Tryptophan” (priority 1990, dated 1999).
Where two headings read alike, the source gives them in different places. Square brackets hold non-standard residues; d marks the D form. Peptide text beside a SMILES is read from it. dTrp(2-Me) = Cc1[nH]c2ccccc2c1C[C@@H](N)C(=O)O; Trp(2-Me) = Cc1[nH]c2ccccc2c1C[C@H](N)C(=O)O; GABA = NCCCC(=O)O

Tests used:
[1] = test system: serum growth hormone and cortisol; experiment: Oral capsule in healthy subjects, serum growth hormone and cortisol; type: in vivo, human; settings: 20 mg capsule, 5 healthy subjects
Protocol: A capsule containing 20 mg of the peptide of Example 18 was orally administered to 5 healthy subjects (3 men and 2 women, ages 30 to 66) and serum growth hormone and cortisol levels were measured at various times after administration.

Growth Hormone release = experiment: GH release in 10-day old rats, s.c. 160 μg/kg; type: in vivo; settings: 160 μg/kg s.c.
Protocol: The peptides of Examples 4 and 5 were tested as Growth Hormone releasers in rats. GH released in a series of seven 10-day old rats, injected subcutaneously with a standard dose of 160 μg/kg and sacrificed 15 minutes after the injection.

[2] = test system: pituitary cell monolayers; experiment: GH secretion of pituitary cell monolayers incubated with peptides; type: cell-based, rats; settings: 2 hours incubation
Protocol: (§1) Male Sprague Dawley rats (Charles River, Calco, Italy) of 2-3 months of age were used. Rats were housed at 22 +2° C., with lighting cycle of 14 h light: 10 h dark (lights on from 06.00 to 20.00 h), at least 10 days before starting the experiments. A standard dry diet and water were available ad libitum.
Pituitary tissue used for cell dissociation included only the anterior lobe. Briefly, pituitary glands were collected in sterile F-10 medium and after cutting into small fragments incubated twice (30 minutes each) at 37° C. in F-10 medium containing 6% fetal calf serum and collagenase (2.5 mg/ml) (Boehringer, Mannheim GmbH, Germany). Fragments were then washed in Dulbecco's PBS, Ca^2 + and Mg^2 + free medium and mechanically dissociated. Single cell suspension was planted onto 24-well (2×10^5 cells/well) culture plates. The cells were incubated in F-10 medium supplemented with 10% horse serum, 4% fetal calf serum and gentamycin (25 μg/ml), in a humidified atmosphere of 5% CO2 and 95% air at 37° C.
After 3 days, the medium was removed and the cells washed twice with serum free F-10, then incubated with 1 ml of F-10 containing 0.1% BSA only, or with added various concentrations of synthetic peptides.
After incubation for 2 h at 37° C., media were collected and stored frozen at -20° C. until assayed for measurement of GH content.
(§2) Medium and plasma GH was measured by radioimmunoassay using materials supplied by the NIADDK Bethesda, Md. Values were expressed in term of NIASSK-rat-GH-RP-2 standard (potency 2 IU/ml), as ng/ml of medium or plasma.
(§3) The minimum detectable value of rat was 1.0 ng/ml; intra-assay variability was 6%. To avoid inter-assay variation, samples from each experiment were assayed simultaneously.

GH release [3] = experiment: Plasma GH after s.c. administration in male rats anesthetized with ketamine and xilazine; type: in vivo
Protocol: as §1
Between 09.00-10.00 h rats were anesthetized with ketamine (58 mg/kg, Inoketam, VIRBAC, Milano) and xilazine (12 mg/kg, Rompun, Bayer, Milano). Thirty minutes later, a blood sample ([…]) was withdrawn from the exposed jugular vein, peptides were injected intravenously or subcutaneously, and further blood samples were collected 10, 20 and 30 minutes later.
as §2, §3

rat = experiment: Acute cardiovascular toxicity in the rat, single i.v. dose, mortality; type: in vivo; settings: for Dead rats/Total No of rats per group: observed up to 4 hours
Protocol: These two peptides were also tested for acute cardiovascular toxicity in the rat.
Dosages were calculated on the basis of the declared peptide content in each product, as specified below:
A single dose of HEXARELIN or GHRP-6 was administered to rats in different calendar dates in such a way that each group/dose should be treated in two subsequent days.
For each compound, appropriate amounts of solutions in 0.9% NaCl for injection were prepared just before treatment at the suitable concentrations. The solutions were sterilized by filtration (Millipore filter, pore size 0.22 μm). Owing to the type of the study (acute study) in which formulates were administered just after preparation, stability checks were not performed. Concentration checks were also not performed. The volume of solution injected was maintained constant at 1 ml/Kg.
The intravenous injections were done as a single dose in one vein of the tail with an appropriately gauged sterile, disposable, plastic syringe. The injection rate was about 0.1 ml/sec.
Periodical observations were made up to 4 hours after treatment. Abnormality and mortality were recorded. Body weight was recorded once during pre-trial and on the administration day to calculate the volumes to be injected.

growth hormone secretion = experiment: Growth hormone secretion in young healthy male volunteers; type: in vivo, human; settings: young (20-30 years old) healthy male volunteers, various dosages, FIGS. 18-20
Protocol: The effects of HEXARELIN on growth hormone secretion in young (20-30 years old) healthy male volunteers were measured after the administration of various dosages.

Human heart tissue = experiment: Inhibition of 125I-Tyr-Ala-HEXARELIN binding to human heart tissue membranes
Protocol: (§4) Tissue membranes (0.1 mg protein) obtained from the heart and hypothalamus of two different adult subjects were incubated in triplicate with a subsaturating concentration (34 pM, about 48,000 cpm, for heart tissue and 42 pM, about 60,000 cpm for hypothalamus tissue) of ^125 I-Tyr-Ala-HEXARELIN for 40 min at 0° C. in the absence and in the presence of increasing concentrations of the indicated unlabelled peptides. The value in parentheses represents the % of inhibition of ^125 I-Tyr-Ala-HEXARELIN specifically bound.
(§5) The specific binding of ^125 I-Tyr-Ala-HEXARELIN/0.1 mg membrane protein is expressed as a percent of total radioactivity added.

[4] = test system: Human hypothalamus tissue; experiment: Inhibition of 125I-Tyr-Ala-HEXARELIN binding to human hypothalamus tissue membranes
Protocol: as §4, §5

GH release [5] = experiment: Released GH in ten day-rats, s.c. (Table 9); type: in vivo; settings: 300 μg/kg s.c., 15 minutes, GH control 10 to 31 ng/ml depending on experiment
Protocol: In vivo activity of these compounds was determined in ten day-rats, which were subcutaneously injected (s.c.) with a dose of 300 μg/kg or with different doses in dose-response studies, according to the procedure as described in Deghenghi et. al, Life Sciences 54, 1321 (1994). The released GH was measured 15 minutes following compound administration.

[6] = Hydrophobicity comparison (FIG. 12); type: physicochemical
Description: FIG. 12 is a graphical comparison of the hydrophobicity of GHRP-6 and HEXARELIN;

plasma testosterone = settings: dog, in vivo, sc
Protocol: The peptide of Example 3 was formulated in a polymeric PLGA implant in the form of rods which were about 1 cm long and 1 mm in diameter. These implants contained a loading of either 20 or 25% of the peptide (an amount of 7 or 10 mg), and were inserted subcutaneously into in male Beagle dogs which weighed between 10 and 12 kg.

[7] = mean of two subjects, read-out: mean IC50 value
[8] = subject 1, read-out: IC50 value
[9] = subject 2, read-out: IC50 value

## Cc1[nH]c2ccccc2c1C[C@H](NC(=O)[C@@H](Cc1c(C)[nH]c2ccccc12)NC(=O)[C@@H](Cc1c(C)[nH]c2ccccc12)NC(=O)CCCN)C(=O)N[C@@H](CCCCN)C(N)=O [Example 18, GAB-D-2-Mrp-D-2-Mrp-2-Mrp-Lys-NH2] (H-[GABA][dTrp(2-Me)][dTrp(2-Me)][Trp(2-Me)]K-NH2)
[1]
  cortisol levels: without cortisol stimulation

## Cc1[nH]c2ccccc2c1C[C@@H](NC(=O)[C@@H](N)Cc1cnc[nH]1)C(=O)N[C@@H](C)C(=O)N[C@@H](Cc1c[nH]c2ccccc12)C(=O)N[C@H](Cc1ccccc1)C(=O)N[C@@H](CCCCN)C(N)=O [Example 4, His-D-2-methyl-Trp-Ala-Trp-D-Phe-Lys-NH2] (H-H[dTrp(2-Me)]AW[dF]K-NH2)
Growth Hormone release
  activity as Growth Hormone releaser: very active
[2]; 10^-6 M
  GH-releasing activity: 558.0 ± 19.1 ng/well
[2]; 10^-7 M
  GH-releasing activity: 589.1 ± 17.9 ng/well
[2]; 10^-8 M
  GH-releasing activity: 557.8 ± 15.9 ng/well
GH release [3]; s.c. 600 μg/kg, 30 min
  plasma GH: 115.3 ± 19.1 ng/mL
GH release [3]; s.c. 150, 300 and 600 μg/kg, 10, 20 and 30 minutes
  GH-releasing effectiveness compared: more effective than GHRP-6 at all the considered times
rat; 5.0 mg/kg i.v. single dose
  Dead rats/Total No of rats per group: 0/6
rat; 7.5 mg/kg i.v. single dose
  Dead rats/Total No of rats per group: 1/6
rat; 10 mg/kg i.v. single dose
  Dead rats/Total No of rats per group: 2/6
rat; i.v. single dose, rat
  toxicity compared: less toxic than GHRP-6
Growth hormone secretion
  effect on growth hormone secretion: effective in vivo
Human heart tissue; 0.1 nM peptide, subject 1
  inhibition of 125I-Tyr-Ala-HEXARELIN specifically bound: 4%
  specific binding of 125I-Tyr-Ala-HEXARELIN: 20.1% of total radioactivity
Human heart tissue; 0.1 nM peptide, subject 2
  inhibition of 125I-Tyr-Ala-HEXARELIN specifically bound: 5%
  specific binding of 125I-Tyr-Ala-HEXARELIN: 22.8% of total radioactivity
Human heart tissue; 1 nM peptide, subject 1
  inhibition of 125I-Tyr-Ala-HEXARELIN specifically bound: 20%
  specific binding of 125I-Tyr-Ala-HEXARELIN: 16.9% of total radioactivity
Human heart tissue; 1 nM peptide, subject 2
  inhibition of 125I-Tyr-Ala-HEXARELIN specifically bound: 28%
  specific binding of 125I-Tyr-Ala-HEXARELIN: 17.3% of total radioactivity
Human heart tissue; 10 nM peptide, subject 1
  inhibition of 125I-Tyr-Ala-HEXARELIN specifically bound: 51%
  specific binding of 125I-Tyr-Ala-HEXARELIN: 10.4% of total radioactivity
Human heart tissue; 10 nM peptide, subject 2
  inhibition of 125I-Tyr-Ala-HEXARELIN specifically bound: 56%
  specific binding of 125I-Tyr-Ala-HEXARELIN: 10.5% of total radioactivity
Human heart tissue; 100 nM peptide, subject 1
  inhibition of 125I-Tyr-Ala-HEXARELIN specifically bound: 92%
  specific binding of 125I-Tyr-Ala-HEXARELIN: 1.7% of total radioactivity
Human heart tissue; 100 nM peptide, subject 2
  inhibition of 125I-Tyr-Ala-HEXARELIN specifically bound: 90%
  specific binding of 125I-Tyr-Ala-HEXARELIN: 2.4% of total radioactivity
Human heart tissue; 1000 nM peptide, subject 1
  inhibition of 125I-Tyr-Ala-HEXARELIN specifically bound: 100%
  specific binding of 125I-Tyr-Ala-HEXARELIN: 0% of total radioactivity
Human heart tissue; 1000 nM peptide, subject 2
  inhibition of 125I-Tyr-Ala-HEXARELIN specifically bound: 100%
  specific binding of 125I-Tyr-Ala-HEXARELIN: 0% of total radioactivity
Human heart tissue; [7]
  IC50: 9.5 nM
Human heart tissue; [8]
  IC50: 10.6 nM
Human heart tissue; [9]
  IC50: 8.3 nM
[4]; 0.1 nM peptide, subject 1
  inhibition of 125I-Tyr-Ala-HEXARELIN specifically bound: 3%
  specific binding of 125I-Tyr-Ala-HEXARELIN: 10.7% of total radioactivity
[4]; 0.1 nM peptide, subject 2
  inhibition of 125I-Tyr-Ala-HEXARELIN specifically bound: 4%
  specific binding of 125I-Tyr-Ala-HEXARELIN: 9.1% of total radioactivity
[4]; 1 nM peptide, subject 1
  inhibition of 125I-Tyr-Ala-HEXARELIN specifically bound: 16%
  specific binding of 125I-Tyr-Ala-HEXARELIN: 9.6% of total radioactivity
[4]; 1 nM peptide, subject 2
  inhibition of 125I-Tyr-Ala-HEXARELIN specifically bound: 19%
  specific binding of 125I-Tyr-Ala-HEXARELIN: 7.7% of total radioactivity
[4]; 10 nM peptide, subject 1
  inhibition of 125I-Tyr-Ala-HEXARELIN specifically bound: 51%
  specific binding of 125I-Tyr-Ala-HEXARELIN: 5.2% of total radioactivity
[4]; 10 nM peptide, subject 2
  inhibition of 125I-Tyr-Ala-HEXARELIN specifically bound: 67%
  specific binding of 125I-Tyr-Ala-HEXARELIN: 3.1% of total radioactivity
[4]; 100 nM peptide, subject 1
  inhibition of 125I-Tyr-Ala-HEXARELIN specifically bound: 89%
  specific binding of 125I-Tyr-Ala-HEXARELIN: 1.2% of total radioactivity
[4]; 100 nM peptide, subject 2
  inhibition of 125I-Tyr-Ala-HEXARELIN specifically bound: 93%
  specific binding of 125I-Tyr-Ala-HEXARELIN: 0.7% of total radioactivity
[4]; 1000 nM peptide, subject 1
  inhibition of 125I-Tyr-Ala-HEXARELIN specifically bound: 100%
  specific binding of 125I-Tyr-Ala-HEXARELIN: 0% of total radioactivity
[4]; 1000 nM peptide, subject 2
  inhibition of 125I-Tyr-Ala-HEXARELIN specifically bound: 100%
  specific binding of 125I-Tyr-Ala-HEXARELIN: 0% of total radioactivity
[4]; [7]
  IC50: 7 nM
[4]; [8]
  IC50: 8.9 nM
[4]; [9]
  IC50: 5 nM
GH release [5]
  GH released: 104.2 ± 13.1 ng/mL
[6]
  hydrophobicity: greater hydrophobicity than GHRP-6

## CCNC(=O)[C@@H]1CCCN1C(=O)[C@H](CCCNC(=N)N)NC(=O)[C@H](CC(C)C)NC(=O)[C@@H](Cc1c(C)[nH]c2ccccc12)NC(=O)[C@H](Cc1ccc(O)cc1)NC(=O)[C@H](CO)NC(=O)[C@H](Cc1c[nH]c2ccccc12)NC(=O)[C@H](Cc1c[nH]cn1)NC(=O)[C@@H]1CCC(=O)N1 [Example 3, Pyro-Glu-His-Trp-Ser-Tyr-D-2-alkyl-Trp-Leu-Arg-Pro-NHCH2 CH3]
Plasma testosterone
  clinical side effects: No clinical side effects were observed
